Data published in patent US6562355B1, “Comixture of dextran sulfate/escin for treating skin redness/edema and/or sensitive skin” (Societe L'Oreal S.A., priority 1999, dated 2003).
Where “and” joins values, the source holds several entries; their conditions need not be identical. Equal values may be shown once.

Tests used:
[1] = solutions of pH ranging from 4 to 10 at room temperature; cited from earlier work
[2] = test system: fragments of normal human skin kept alive (eyelid); test: Anti-edema and vasodilation-inhibitory effect in human skin kept alive after induction with substance P/TNFα/arachidonic acid (cocktail A); semi-quantitative histological scores; format: cell-based; conditions: skin + cocktail A (5 μM substance P, arachidonic acid 40 mg/ml, TNFα 50 ng/ml) 2 hours, 37° C., topical, escin 0.075%, dextran sulfate 0.20%, 3 donors; for Vasodilation (histological score of dilation of the capillaries): score 0 (no dilation) to 4 (very large dilation), cocktail A alone 2.2, control skin 0.37; for Edema (histological score): score 0 (no edema) to 4 (very considerable edema), cocktail A alone 2.8, control skin 0.62
Text: The goal of this study was to visualize the anti-edema effect and the vasodilation-inhibitory effect of intimate admixture of dextran sulfate and escin, in a model of skin kept alive (eyelid) after the induction of edema and vasodilation by a neuromediator (substance P)/α-type tumor necrosis factor (TNFα)/arachidonic acid combination.
Fragments of normal human skin from 3 different donors (plastic surgery), mechanically freed of the subcutaneous fat and the inner layer of the dermis, were each placed on a culture insert consisting of a porous membrane (pores 12 μm in diameter) (Costar), the dermal portion of the skin fragment being placed in contact with the porous membrane. The assembly thus prepared was positioned over the wells of a Costar brand 12-well culture plate and maintained for 24 hours at 37° C. in an incubator under a humidified atmosphere containing 5% CO2.
DMEM culture medium (Gibco-BRL) containing 100 U/ml of penicillin and 100 μg/ml of streptomycin, 200 μg/ml of L-glutamine and 0. 1% fetal calf serum (D.A.P., France), was added to the bottom of the wells such that the liquid reached the porous membrane without passing it. Thus mounted, the skin was in contact via its lower face surface through the porous membrane with the culture medium, transport taking place by slow diffusion between the two compartments.
The edema and the vasodilation were produced experimentally by placing on the surface of the skin a mixture in a culture medium consisting of 25 μl of a neuromediator (5 μM substance P), arachidonic acid (25 μl of a solution at a concentration of 40 mg/ml in glycerol) and TNFα (50 ng/ml), hereinafter referred to as “cocktail A”. These substances were maintained in contact with the skin for 2 hours.
The test products were applied topically onto the skin fragments during the induction of the edema and the vasodilation.
The escin, at a final concentration of 0.075%, was dissolved in water.
The dextran sulfate, at a final concentration of 0.20%, was dissolved in propylene glycol.
The temperature was maintained at 37° C. throughout the test period.
The histological analyses were carried out according to the conventional techniques known to this art, without modification of the protocols.
After treatment, the skin fragments were removed and fixed in Bouin liquid and included in paraffin for the histological analyses.
After staining with hemalun-eosin, the two (2) criteria, edema and dilation of the capillaries, were evaluated by means of semi-quantitative histological scores.
The histological evaluation was carried out in the superficial dermis and in the top part of the middle dermis on the same number of fields four (4) fields at 10× magnification). […]

[3] = cited from earlier work

Substance	stability in solutions [1]	Vasodilation (histological score of dilation of the capillaries) [2]	Edema (histological score) [2]	solubility in water and saline solutions [3]
dextran sulfate	high	1.8 and 1.8 ± 1.04	2.1 and 2.1 ± 1.04	good
escin [reference compound]		1.5 and 1.5 ± 0.5	1.16 and 1.16 ± 0.77	
